Assay results reported in ChEMBL document CHEMBL3886711, “Substituted tetrahydrocarbazole and carbazole carboxamide compounds” (2016).
Several values for one entry are separate records, joined by “and”; a condition that tells them apart may be missing. Equal values may be shown once.

Biological target: Tyrosine-protein kinase JAK2 (Homo sapiens, UniProt O60674)
Assay: Jak2 Tyrosine Kinase Assay: The assays were performed in V-bottom 384-well plates. The final assay volume was 30 μl prepared from 15 μl additions of enzyme and substrates (fluoresceinated peptide and ATP) and test compounds in assay buffer (100 mM HEPES pH 7.4, 10 mM MgCl2, 25 mM beta-glycerolphosphate, […] Brij 35 surfactant and 4 mM DTT). The reaction was initiated by the combination of Jak2

Sequence of Tyrosine-protein kinase JAK2 (O60674 whole entry): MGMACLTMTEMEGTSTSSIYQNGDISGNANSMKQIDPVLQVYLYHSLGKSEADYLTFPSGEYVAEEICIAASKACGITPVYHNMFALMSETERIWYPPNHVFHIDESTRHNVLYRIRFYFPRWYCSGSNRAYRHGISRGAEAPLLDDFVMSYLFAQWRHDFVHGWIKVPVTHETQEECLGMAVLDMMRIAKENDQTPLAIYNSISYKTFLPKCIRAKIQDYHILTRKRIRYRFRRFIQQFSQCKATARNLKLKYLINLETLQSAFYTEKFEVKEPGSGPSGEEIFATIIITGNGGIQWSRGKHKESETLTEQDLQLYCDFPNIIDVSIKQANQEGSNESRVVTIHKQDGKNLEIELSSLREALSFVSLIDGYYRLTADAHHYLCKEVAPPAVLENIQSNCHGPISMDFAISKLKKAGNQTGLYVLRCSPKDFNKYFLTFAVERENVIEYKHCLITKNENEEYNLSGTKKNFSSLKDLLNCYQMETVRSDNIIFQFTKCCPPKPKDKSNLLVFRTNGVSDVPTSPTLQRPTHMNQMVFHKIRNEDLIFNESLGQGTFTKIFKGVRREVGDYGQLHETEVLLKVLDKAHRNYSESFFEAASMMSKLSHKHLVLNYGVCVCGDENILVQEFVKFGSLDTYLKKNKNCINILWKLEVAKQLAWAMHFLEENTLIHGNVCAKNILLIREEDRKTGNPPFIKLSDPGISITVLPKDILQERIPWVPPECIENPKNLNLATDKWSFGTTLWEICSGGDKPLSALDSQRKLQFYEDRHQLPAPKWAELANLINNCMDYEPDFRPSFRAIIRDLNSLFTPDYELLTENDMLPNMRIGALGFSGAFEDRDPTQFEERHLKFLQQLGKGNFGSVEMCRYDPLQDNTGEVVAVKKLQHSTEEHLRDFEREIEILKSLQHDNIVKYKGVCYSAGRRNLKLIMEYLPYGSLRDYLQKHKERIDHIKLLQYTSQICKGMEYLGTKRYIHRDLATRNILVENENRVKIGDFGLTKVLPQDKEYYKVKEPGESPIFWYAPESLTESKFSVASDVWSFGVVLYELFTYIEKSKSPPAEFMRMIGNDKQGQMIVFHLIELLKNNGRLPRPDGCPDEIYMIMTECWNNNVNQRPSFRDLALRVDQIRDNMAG

IC50 | SMILES
1700 nM | Cc1c(-c2c(F)cc(C(N)=O)c3[nH]c4cc(C(C)(C)O)ccc4c23)cccc1-n1c(=O)[nH]c2c(F)cccc2c1=O
1400 nM and 970 nM | Cc1c(-c2c(Cl)cc(C(N)=O)c3[nH]c4cc(C(C)(C)O)ccc4c23)cccc1-n1c(=O)cc2c(Cl)cccn2c1=O
